According to patent US20140100107A1, “TERNARY FUNGICIDAL COMPOSITIONS COMPRISING A DITHIINO-TETRACARBOXAMIDE FUNGICIDE” (BAYER INTELLECTUAL PROPERTY GMBH, priority 2011, published 2014):

System: Alternaria solani
Experiment: Alternaria test (tomatoes)/preventive
Assay type: in vivo
Settings: preventive spray, evaluated 3 days after inoculation
Experimental: Alternaria Test (Tomatoes)/Preventive [table] To produce a suitable preparation of active compound, 1 part by weight of active compound is mixed with the stated amounts of solvent and emulsifier, and the concentrate is diluted with water to the desired concentration. To test for preventive activity, young plants are sprayed with the preparation of active compound at the stated rate of application. After the spray coating has dried on, the plants are inoculated with an aqueous spore suspension of Alternaria solani. The plants are then placed in an incubation cabinet at approximately 20° C. and a relative atmospheric humidity of 100%. The test is evaluated 3 days after the inoculation. 0% means an efficacy which corresponds to that of the untreated control while an efficacy of 100% means that no disease is observed.

Structure (SMILES): Cn1c(=O)c2sc3c(=O)n(C)c(=O)c3sc2c1=O [(1.1), 2,6-dimethyl-1H,5H-[1,4]dithiino[2,3-c:5,6-c′]dipyrrole-1,3,5,7(2H,6H)-tetrone]
- Efficacy in % found (activity found) (application rate 10 ppm a.i.): 0%

Structure (SMILES): O=C(NCCc1ncc(C(F)(F)F)cc1Cl)c1ccccc1C(F)(F)F [(2.6), fluopyram]
- Efficacy in % found (activity found) (application rate 1 ppm a.i.): 7%

Structure (SMILES): CC(C)(C)C(O)(CCc1ccc(Cl)cc1)Cn1cncn1 (stereo not drawn) [(3.47), tebuconazole]
- Efficacy in % found (activity found) (application rate 1 ppm a.i.): 21%
